Residues, ends and D or L forms follow the SMILES beside them.
Tests used:
TGF-β = TGF-β like activity of cytomodulin analogs; details: compared with TGF-β and cytomodulin
Description: As first introduced in the present inventor's U.S. Pat. No. 5,780,436, which is hereby incorporated by reference in its entirety, using cytomudulin as a guide, two initial cytomodulin analogs, L-I-A-E-A-K (SEQ ID NO: 2) and L-I-A-P-E-A (SEQ ID NO: 3) were designed, synthesized, and tested. In both peptides, -V-A-, was replaced by -I-A- and the first two N-terminal amino acid sequence of cytomodulin was replaced with leucine. In SEQ ID NO: 2, glutamic acid is at position i+3 since it is the first side-chain after the β-bend structure. In SEQ ID NO: 3, proline is at position i+3.
Analogs of SEQ ID NO: 2 and SEQ ID NO: 3 were made to further probe the sequence requirements for TGF-β like activity. To that end, the following peptides were made:
SEQ ID NOs 4-6, which are minor variants of SEQ ID NO: 2, mimicked the biological activities of TGF-β and cytomodulin. […] Alternatively, all peptides with the sequences represented by SEQ ID NOs: 9-16 mimicked at least one biological activity of TGF-β to some degree.

[1] = safety testing of cosmetic grade cytomodulin as a topically administered ingredient
Description: In particular, the heptapeptide TGF-β mimic, A-N-V-A-E-N-A (SEQ ID NO: 1), termed “cytomodulin,” has been examined and tested as an ingredient in compositions with the potential for improving the condition of skin upon application; a cosmetic grade cytomodulin was first synthesized according to U.S. Pat. No. 5,661,127 and subsequently tested to ensure both its efficacy and safety as a topically administered ingredient.

Molecule | TGF-β like activity (TGF-β) | toxicity [1]
L-I-A-P-E-A (LIAPEA; TGF-beta mimic) [SEQ ID NO: 3, cytomodulin analog] | at least as much TGF-β like activity as cytomodulin | –
L-I-A-E-A-K (LIAEAK; TGF-beta mimic) [SEQ ID NO: 2, cytomodulin analog] | at least as much TGF-β like activity as cytomodulin | –
CC(C)[C@H](NC(=O)[C@H](CC(N)=O)NC(=O)[C@H](C)N)C(=O)N[C@@H](C)C(=O)N[C@@H](CCC(=O)O)C(=O)N[C@@H](CC(N)=O)C(=O)N[C@@H](C)C(=O)O [cytomodulin, A-N-V-A-E-N-A] (H-ANVAENA-OH) | – | completely non-toxic

— patent US20160151270A1, “Peptide-Based Compositions and Methods of Use” (Geoffrey Brooks Consultants LLC, priority 2014, published 2016)
